{"source": "patent US4738965A", "about": "“2-oxo-4-(2'-difl uoromethylthiophenyl)-5-methoxycarbonyl-6-methyl-1,2,3,4-tetrahydropyrimi dine” (Institut Organischskogo Sinteza Akademii Nauk SSR, priority 1987, dated 1988)", "key": {"[1]": {"conditions": "large doses, in words; cited from earlier work"}, "[2]": {"tested_on": "coronary dilating activity", "conditions": "clinical practice, in words; cited from earlier work"}, "[3]": {"tested_on": "Arterial Pressure", "test": "Hypotensive activity in spontaneously-hypertensive rats", "type": "in vivo, spontaneously-hypertensive rats (SHR) of Okamoto-Aoki line", "conditions": "SHR, single 10 mg/kg dose into the stomach; for Hypotensive activity: Table 2", "experimental": "The experiments were conducted on spontaneously-hypertensive rats (SHR) of Okamoto-Aoki line."}, "[4]": {"tested_on": "Coronary Blood Flow (descending branch of the left coronary artery)", "test": "Coronary dilating activity: coronary blood flow in narcotized dogs with open thoracic cavity", "type": "in vivo", "conditions": "for ED (50% increase): Canis lupus familiaris, read-out: Dose increasing coronary blood flow by 50%", "experimental": "The experiments have been conducted on narcotized dogs with the open thoracic cavity. The blood flow was registered in the descending branch of the left coronary artery.\nThe blood flow was determined before and after the injection of the proposed compounds. The proposed compound was introduced in a single dose, intravenously, followed by calculating the increase in the coronary blood flow in percent."}, "[5]": {"test": "Acute toxicity in mice", "conditions": "mouse, in vivo, ip"}, "[6]": {"test": "in vivo", "conditions": "mouse, ip"}, "[7]": {"tested_on": "systemic arterial pressure and cardiac output", "test": "Systemic arterial pressure and cardiac output in narcotized dogs", "type": "in vivo", "conditions": "0.01-0.1 mg/kg, intravenous"}, "[8]": {"test": "Solubility", "type": "physicochemical"}, "[9]": {"test": "Chemical stability", "type": "physicochemical"}, "[10]": {"tested_on": "mongrel white mice", "test": "Acute toxicity in mice", "conditions": "ratio versus nifedipin and papaverine"}, "[11]": {"conditions": "0.1 mg/kg, single dose, intravenous, narcotized dogs"}, "[12]": {"conditions": "0.5 mg/kg, single dose, intravenous, narcotized dogs"}, "[13]": {"conditions": "0.01 mg/kg, single dose, intravenous, narcotized dogs"}}, "note": "Read-outs that look alike come from different tables or passages of the source."}
{"compound": "COc1ccc(Cc2nccc3cc(OC)c(OC)cc23)cc1OC", "note": "[Papaverine, reference compound]", "values": [{"measurement": "Toxicity", "setting": "[1]", "value": "rather high"}, {"measurement": "Coronary dilating activity", "setting": "[2]", "value": "low coronary dilating activity"}, {"measurement": "Duration of hypotensive effect", "setting": "[3]", "value": 3, "unit": "h"}, {"measurement": "Effect on arterial pressure (in words)", "setting": "[3]", "value": "insignificant effect on arterial pressure"}, {"measurement": "Reduction of (systolic) arterial pressure", "setting": "[3]", "value": 5, "unit": "%"}, {"measurement": "Hypotensive activity", "setting": "[3]", "value": 5}, {"measurement": "Duration of effect", "setting": "[4]; [11]", "value": 5, "unit": "min"}, {"measurement": "Increase of coronary blood flow", "setting": "[4]; [11]", "value": 20, "unit": "%"}, {"measurement": "Duration of effect", "setting": "[4]; [12]", "value": 7, "unit": "min"}, {"measurement": "Increase of coronary blood flow", "setting": "[4]; [12]", "value": 30, "unit": "%"}, {"measurement": "ED (50% increase)", "setting": "[4]; iv", "value": 0.9, "unit": "mg/kg"}, {"measurement": "LD50 at 336 h", "setting": "[5]", "value": 91, "unit": "mg/kg"}]}
{"compound": "COC(=O)C1=C(C)NC(=O)NC1c1ccccc1SC(F)F", "note": "(stereo not shown) [Proposed compound, 2-oxo-4-(2'-difluoromethylthiophenyl)-5-methoxycarbonyl-6-methyl-1,2,3,4-tetrahydropyrimidine]", "values": [{"measurement": "Duration of hypotensive effect", "setting": "[3]", "value": 6, "unit": "h"}, {"measurement": "Effect on arterial pressure (in words)", "setting": "[3]", "value": "no substantial effect on arterial pressure"}, {"measurement": "Reduction of (systolic) arterial pressure", "setting": "[3]", "value": 8, "unit": "%"}, {"measurement": "Hypotensive activity", "setting": "[3]", "value": 8}, {"measurement": "LD50 at 336 h", "setting": "[6]", "value": "> 2000", "unit": "mg/kg"}, {"measurement": "Change of systemic arterial pressure and cardiac output", "setting": "[7]", "value": "did not change the systemic arterial pressure and the cardiac output"}, {"measurement": "Increase of coronary blood flow", "setting": "[4]; 0.001 mg/kg, single dose, intravenous, narcotized dogs", "value": 19, "unit": "%"}, {"measurement": "Duration of effect", "setting": "[4]; [13]", "value": 35, "unit": "min"}, {"measurement": "Increase of coronary blood flow", "setting": "[4]; [13]", "value": 79, "unit": "%"}, {"measurement": "Duration of effect", "setting": "[4]; [11]", "value": 60, "unit": "min"}, {"measurement": "Increase of coronary blood flow", "setting": "[4]; [11]", "value": 107, "unit": "%"}, {"measurement": "ED (50% increase)", "setting": "[4]; single dose, intravenous, narcotized dogs", "value": 0.006, "unit": "mg/kg"}, {"measurement": "Duration of effect compared with nifedipin", "setting": "[4]; ratio versus nifedipin", "value": 1.7, "unit": "times"}, {"measurement": "Strong and prolonged vasodilating effect with relation to coronary vessels, compared with nifedipin", "setting": "[4]; ratio versus nifedipin (summary)", "value": 1.7, "unit": "times"}, {"measurement": "Coronary dilating activity compared with papaverine, by doses", "setting": "[4]; ratio versus papaverine", "value": 150, "unit": "times"}, {"measurement": "Duration of effect compared with papaverine", "setting": "[4]; ratio versus papaverine", "value": "over 10 times"}, {"measurement": "Strong and prolonged vasodilating effect with relation to coronary vessels, compared with papaverine", "setting": "[4]; ratio versus papaverine (summary)", "value": "about 10 times"}, {"measurement": "Coronary dilating effect compared with nifedipin", "setting": "[4]; versus nifedipin, in words", "value": "approximately equal in activity to nifedipin"}, {"measurement": "Solubility in organic solvents", "setting": "[8]; ethyl alcohol, acetone, chloroform and other organic solvents", "value": "comparatively easily-soluble in ethyl alcohol, acetone, chloroform and other organic solvents"}, {"measurement": "Solubility in water", "setting": "[8]; water", "value": "insoluble in water"}, {"measurement": "Chemical stability", "setting": "[9]", "value": "chemically stable"}, {"measurement": "Toxicity, times lower than that of nifedipin and papaverine", "setting": "[10]", "value": "10-20 times"}]}
